Assay [1] concerns primary human T-cells. Kind of assay: Proliferation assay after 5 days (CellTiter-Glo, CD3 stimulation; PBS counter screen). As to conditions: CD3 stimulation; for Emax: 5 days, normalized to reference compound A1 as stimulator control = 100%, DMSO neutral control, read-out: Emax proliferation (% activation); for pEC50: primary human T-cells, CellTiter-Glo after 5 days, EC50 of fitted sigmoidal curve, read-out: Tcell Proliferation CD3 EC50. The format is cell-based. A digest of the protocol:
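After compound addition to medium-only plates, cells are cultured 5 days, equilibrated to room temperature, mixed with an equal volume of CellTiter-Glo 2.0 and rocked 15 min before luminescence is read. Signal reflects ATP content, taken as proportional to cell number.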
A general note: In ATP-based viability assays light output follows the ATP content of the culture.

Assay [2] deals with primary human T-cells.

pEC50: −log10 of the molar value. Like-named read-outs stand apart in the source and are kept apart here. Some results are limits rather than exact numbers.

Regarding `CC(C)(C#N)Nc1nnc(-c2cc3c(cc2F)S(=O)(=O)C[C@H](N)C(=O)N3Cc2ccc(Cl)cc2)o1` [Example 486, 2-methyl-2-[[5-[(3R)-3-amino-5-[(4-chlorophenyl)methyl]-8-fluoro-1,1,4-trioxo-2,3-dihydro-1λ^6,5-benzothiazepin-7-yl]-1,3,4-oxadiazol-2-yl]amino]propanenitrile], in assay [1] (Homo sapiens, T-cell, 120 h), the Emax came to 106%. Also, the pEC50 in assay [1] (Homo sapiens, T-cell, 120 h) is 5.57; in assay [2], 5.17.

As for `CC(C)(C)c1nnc(-c2cc3c(cc2N)S(=O)(=O)C[C@H](N)C(=O)N3Cc2ccc(Cl)cc2)o1` [Example 275, (3R)-3,8-diamino-7-(5-tert-butyl-1,3,4-oxadiazol-2-yl)-5-[(4-chlorophenyl)methyl]-1,1-dioxo-2,3-dihydro-1λ^6,5-benzothiazepin-4-one], the Emax in assay [1] (Homo sapiens, T-cell, 120 h) was found to be 108%. The pEC50 was 5.26 in assay [1] (Homo sapiens, T-cell, 120 h) and 5.04 in assay [2].

Take `CC(Nc1nnc(-c2cc3c(cc2F)S(=O)(=O)C[C@H](N)C(=O)N3Cc2ccc(Cl)cc2)o1)C1CC1(F)F` (single isomer, unassigned) [Example 495]: the Emax in assay [1] (Homo sapiens, T-cell, 120 h) was determined as 93%. Also, the pEC50 was 6.58 in assay [1] and 6.10 in assay [2].

For `CC(C)(C#N)Nc1nc(-c2cc3c(cc2F)S(=O)(=O)C[C@H](N)C(=O)N3Cc2ccc(Cl)cc2)no1` [Example 199, 2-methyl-2-[[3-[(3R)-3-amino-5-[(4-chlorophenyl)methyl]-8-fluoro-1,1,4-trioxo-2,3-dihydro-1λ^6,5-benzothiazepin-7-yl]-1,2,4-oxadiazol-5-yl]amino]propanenitrile], in assay [1] (Homo sapiens, T-cell, 120 h), the Emax is 71% and the pEC50 is 5.53. Besides, in assay [2], the pEC50 was under 5.00.

In the case of `CC(C)(C)c1nnc(-c2cc3c(cc2F)S(=O)(=O)C[C@H](N)C(=O)N3Cc2ccc(CN)cc2)o1` [Example 226, (3R)-3-amino-5-[[4-(aminomethyl)phenyl]methyl]-7-(5-tert-butyl-1,3,4-oxadiazol-2-yl)-8-fluoro-1,1-dioxo-2,3-dihydro-1λ^6,5-benzothiazepin-4-one], in assay [1] (Homo sapiens, T-cell, 120 h), the Emax is 25% and the pEC50 was under 4.70. In assay [2], this compound had a pEC50 of under 4.70.

Regarding `CCN1CCC(C)(c2nc(-c3cc4c(cc3F)S(=O)(=O)C[C@H](N)C(=O)N4Cc3ccc(Cl)cc3)no2)CC1` [Example 306, (3R)-3-amino-5-[(4-chlorophenyl)methyl]-7-[5-(1-ethyl-4-methyl-4-piperidyl)-1,2,4-oxadiazol-3-yl]-8-fluoro-1,1-dioxo-2,3-dihydro-1λ^6,5-benzothiazepin-4-one], in assay [1] (Homo sapiens, T-cell, 120 h), the Emax is 79% and the pEC50 is 5.46. This compound also showed a pEC50 in assay [2] of 6.24.

Regarding `CC(C)(C)c1nnc(-c2cc3c(cc2F)S(=O)(=O)C[C@H](N)C(=O)N3Cc2ccc(S(C)(=O)=O)c(F)c2)o1` [Example 242, (3R)-3-amino-7-(5-tert-butyl-1,3,4-oxadiazol-2-yl)-8-fluoro-5-[(3-fluoro-4-methylsulfonyl-phenyl)methyl]-1,1-dioxo-2,3-dihydro-1λ^6,5-benzothiazepin-4-one], the Emax in assay [1] (Homo sapiens, T-cell, 120 h) stood at 92%. Besides, the pEC50 is 5.47 in assay [1] (Homo sapiens, T-cell, 120 h) and 5.32 in assay [2].

As for `CC(C)(C)c1nnc(-c2cc3c(cc2F)S(=O)(=O)C[C@H](N)C(=O)N3Cc2ccccc2Cl)o1` [Example 227, (3R)-3-amino-7-(5-tert-butyl-1,3,4-oxadiazol-2-yl)-5-[(2-chlorophenyl)methyl]-8-fluoro-1,1-dioxo-2,3-dihydro-1λ^6,5-benzothiazepin-4-one], in assay [1] (Homo sapiens, T-cell, 120 h), the Emax came to 39% and the pEC50 was under 4.70. The compound further showed a pEC50 in assay [2] of under 4.70.

Take `N[C@H]1CS(=O)(=O)c2ccc(-c3nnc(N4CCOCC4)o3)cc2N(Cc2ccc(Cl)cc2)C1=O` [Example 410, (3R)-3-amino-5-[(4-chlorophenyl)methyl]-7-(5-morpholino-1,3,4-oxadiazol-2-yl)-1,1-dioxo-2,3-dihydro-1λ^6,5-benzothiazepin-4-one]: in assay [1] (Homo sapiens, T-cell, 120 h), the Emax is 109% and the pEC50 is 5.93. This compound also showed a pEC50 in assay [2] of 5.15.

The values are drawn from patent publication US20240368150A1 (Hoffmann-La Roche Inc., priority 2021, published 2024).
